# From PMC3596558, “Identification of the metabolites of polybrominated diphenyl ether 99 and its related cytochrome P450s^” (Journal of Biomedical Research, 2010)
# Several values for one entry are separate records, joined by “and”; a condition that tells them apart may be missing. Equal values may be shown once. Entries after “also recorded” stand apart in the source; their conditions may differ.
# Columns and labels:
# [1] = system: primary rat hepatocytes; test: Metabolism of BDE-99 in primary rat hepatocytes, GC/MS of extracts; format: in vitro ADME; conditions: for metabolite of BDE-99 detected by GC/MS (qualitative): compared with commercial standards
# From the text: Primary rat hepatocytes were isolated from three individual male Sprague-Dawley CD rats (body weight 220-250 g) obtained from Laboratory Animal Center of Nanjing Medical University, using the two-step in situ collagenase perfusion method. Then the hepatocytes were purified by percoll density gradient separation and washed twice before being resuspended in the attachment medium. Cells viability exceeded 90% as determined by trypan blue exclusion. For the cell culture, the isolated hepatocytes were seeded in Type I collagen-coated 12-well plates at a density of 150, 000 cells/cm^2 in Williams' Medium E containing 5% fetal calf serum, 100 U/mL penicillin and 100 µg/mL streptomycin, and then incubated in a humidified atmosphere of 5% CO2 in air at 37°C. After 2-3 h incubation, the unattached cells were poured off and the medium was replaced with 1 mL HepatoZYME-SFM supplemented with 100 U/mL penicillin, 100 µg/mL streptomycin, 20 µg/L EGF and 20 µg/L HGF.
# (§1) All the hepatocyte batches were exposed to BDE-99 at a nominal concentration of 10 µM, equivalent to 10 nM of compound per well. A stock solution of BDE-99 which was 200 times the final concentration in tissue culture medium was prepared in DMSO and stored at -20°C. Separate 12-well plates were used for the metabolism and gene expression analysis. To produce metabolites of BDE-99, the hepatocytes were treated once every 24 h for 3 days to take advantage of the increased activity of cells and potential increase in metabolite formation. The hepatocytes cultured with medium without BDE-99 were set up as controls. During medium exchange of the hepatocytes, we collected and pooled the contents from each well. After incubation, the hepatocytes were removed from the wells using 1 mL methanol to disrupt cell membranes. The contents were subsequently transferred to clean glass test tubes for extraction. For the gene expression analysis, the rat hepatocytes were exposed to 10 µM BDE-99 for 24 h. Wells treated with media containing aliquots of DMSO were set up as controls.
# Hepatocytes and media were extracted using methods developed for the extraction of phenolic and neutral compounds from serum. Briefly, samples were first spiked with one internal standard, BDE-77, and extracted using methyl-tert-butyl ether/hexane:1/1(v/v). Lipids were removed from the extracts with concentrated sulfuric acid, and then the neutral and phenolic compounds were separated using a basic aqueous solution of potassium hydroxide. The phenolic fraction was derivatized with acetonitrile / methanol / water / pyrimidine: 5/2/2/1(v/v), then methyl chloroformate was added to produce methyl formate BDE congeners. After derivatization, samples were evaporated to complete dryness using a slow stream of nitrogen and reconstituted in hexane. Each human P450s assay sample was added into one internal standard BDE-77 before extraction. Proteins were denatured with 0.5 mL 6 M hydrochloric acid, and then 3 mL hexane was added for extraction. This step was repeated three times. The extraction was evaporated to complete dryness using a slow stream of nitrogen and reconstituted in 0.5 mL acetonitrile. Rates of elimination were determined by comparing the concentration of parent compound before and after the reaction.
# The underivatized and derivatized extracts were analyzed using a GC/MS system (Trace DSQ ThermoFisher Scientific, USA) with electron impact (EI) ionization. Separation was performed on a DB-5MS column (30 m×0.25 mm i. d. ×0.25 µm thickness) (Agilent Technologies, Inc., USA). The inlet temperature was 260°C, and the injection was performed in pulsed splitless mode. The oven initial temperature was 110°C and was held for 1 min. The temperature was ramped to 210°C at 12°C/min, and a second ramp was performed to 250°C at 4°C/min and was […]. Finally, the oven was ramped to 300°C at 20°C/min and this step was held for 10 min to give a total run time of 32.83 min. […]
# [2] = system: GSTM1 mRNA; test: GSTM1 mRNA expression in primary rat hepatocytes, quantitative RT-PCR; format: cell-based; conditions: 10 µM BDE-99, 24 h; n = 3
# Protocol: as §1, with “Wells treated with media containing aliquots of DMSO were set up as controls.” left out
# (§2) The expression of several genes that encode potential biotransforming enzymes, such as CYP1A2, CYP2B1/2, CYP3A23/3A1, GSTM1 and GSTP1, were determined using quantitative RT-PCR, and GAPDH was used as a reference to calculate the expression levels. […] At the end of each step, the fluorescence intensity of evagreen was read on the 7900 system. […]
# [3] = target: T1, human CYP2A6 (Homo sapiens, UniProt P11509); test: Metabolic clearance (parent depletion) of BDE-99 by recombinant human CYP2A6; format: in vitro ADME; conditions: percentage parent BDE-99 metabolized during a 20-min incubation, 20 µM BDE-99, 37°C, mean ±SD, n = 3
# T1 construct: made in house; host or cells: Sf9 insect cells (Bac-to-Bac baculovirus), microsomes
# T1 sequence (P11509 1-494): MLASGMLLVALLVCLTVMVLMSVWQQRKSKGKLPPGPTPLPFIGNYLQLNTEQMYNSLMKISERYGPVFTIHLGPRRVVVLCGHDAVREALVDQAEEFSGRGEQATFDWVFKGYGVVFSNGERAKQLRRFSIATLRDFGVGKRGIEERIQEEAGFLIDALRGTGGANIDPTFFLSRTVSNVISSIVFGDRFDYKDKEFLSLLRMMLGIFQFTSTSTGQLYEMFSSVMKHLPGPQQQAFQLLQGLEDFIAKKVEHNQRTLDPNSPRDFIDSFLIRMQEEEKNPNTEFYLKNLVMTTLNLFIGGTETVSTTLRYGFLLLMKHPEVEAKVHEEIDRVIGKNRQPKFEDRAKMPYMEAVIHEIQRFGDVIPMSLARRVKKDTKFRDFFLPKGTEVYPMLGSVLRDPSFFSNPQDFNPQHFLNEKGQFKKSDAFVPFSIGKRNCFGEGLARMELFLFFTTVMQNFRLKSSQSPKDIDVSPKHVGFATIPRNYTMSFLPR
# From the text: (§3) All the proteins were expressed in a Bac-to-Bac baculovirus expression system (Invitrogen Corp., USA) following the manufacturer's instructions. Briefly, the CYP1A1 (NM_000499), CYP1A2 (NM_000761), CYP2A6 (NM_000762), CYP2E1 (NM_000773) and CYP3A4 (NM_017460) cDNA were first transformed to the recombinant bacmid, and subsequently transfected into the Sf9 cells to produce recombinant baculovirus particles, and further to get the baculoviral stock which was finally used to express CYPs proteins in the culture medium containing 0.1 µM ferric citrate and 0.1 µM 5-ALA. After being incubated for 72 h, the infected Sf9 cells were harvested and the microsomes were prepared by sonication using an Ultrasonic Processor (CPX130, Cole-Parmer Scientific Instruments, USA) and differential centrifugation. The protein expressed from the blank vector was used as a negative control. The prepared microsomes were stored at -80°C prior to usage.
# (§4) Each human P450 was screened for its ability to oxidize and eliminate BDE-99 from the assay mixture. […]
# (§5) Hepatocytes and media were extracted using methods developed for the extraction of phenolic and neutral compounds from serum. […] Rates of elimination were determined by comparing the concentration of parent compound before and after the reaction.
# [4] = system: CYP1A2 mRNA; test: CYP1A2 mRNA expression in primary rat hepatocytes, quantitative RT-PCR; format: cell-based; conditions: 10 µM BDE-99, 24 h; P < 0.05; n = 3
# Protocol: as §1, with “Wells treated with media containing aliquots of DMSO were set up as controls.” left out
# as §2
# [5] = target: T2, human CYP3A4 (Homo sapiens, UniProt P08684); test: Metabolic clearance (parent depletion) of BDE-99 by recombinant human CYP3A4; format: in vitro ADME; conditions: percentage parent BDE-99 metabolized during a 20-min incubation, 20 µM BDE-99, 37°C, mean ±SD, n = 3
# T2 construct: made in house; host or cells: Sf9 insect cells (Bac-to-Bac baculovirus), microsomes
# From the text: as §3, §4, §5
# [6] = target: T3, human CYP2E1 (Homo sapiens, UniProt P05181); test: Metabolic clearance (parent depletion) of BDE-99 by recombinant human CYP2E1; format: in vitro ADME; conditions: 20-min incubation, 20 µM BDE-99, 37°C, N.S. = no significant difference (vs blank vector control)
# T3 construct: made in house; host or cells: Sf9 insect cells (Bac-to-Bac baculovirus), microsomes
# From the text: as §3, §4, §5
# [7] = system: CYP3A23/3A1 mRNA; test: CYP3A23/3A1 mRNA expression in primary rat hepatocytes, quantitative RT-PCR; format: cell-based; conditions: 10 µM BDE-99, 24 h; P < 0.05; n = 3
# Protocol: as §1, with “Wells treated with media containing aliquots of DMSO were set up as controls.” left out
# as §2
# [8] = target: T4, human CYP1A2 (Homo sapiens, UniProt P05177); test: Metabolic clearance (parent depletion) of BDE-99 by recombinant human CYP1A2; format: in vitro ADME; conditions: percentage parent BDE-99 metabolized during a 20-min incubation, 20 µM BDE-99, 37°C, mean ±SD, n = 3
# T4 construct: made in house; host or cells: Sf9 insect cells (Bac-to-Bac baculovirus), microsomes
# T4 sequence (P05177 1-516): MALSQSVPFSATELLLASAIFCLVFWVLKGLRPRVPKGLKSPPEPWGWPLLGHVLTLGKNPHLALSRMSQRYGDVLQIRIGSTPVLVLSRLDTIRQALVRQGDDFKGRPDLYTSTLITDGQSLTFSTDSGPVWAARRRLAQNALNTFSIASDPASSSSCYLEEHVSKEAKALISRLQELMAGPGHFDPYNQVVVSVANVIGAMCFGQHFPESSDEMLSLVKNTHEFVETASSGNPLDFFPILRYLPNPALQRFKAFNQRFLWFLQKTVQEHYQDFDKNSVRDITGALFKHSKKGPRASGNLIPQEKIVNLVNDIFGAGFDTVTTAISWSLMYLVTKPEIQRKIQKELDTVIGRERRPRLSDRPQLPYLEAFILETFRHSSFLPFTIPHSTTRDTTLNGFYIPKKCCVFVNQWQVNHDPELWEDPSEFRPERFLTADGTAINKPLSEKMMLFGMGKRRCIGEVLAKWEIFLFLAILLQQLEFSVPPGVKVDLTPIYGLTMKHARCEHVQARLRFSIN
# From the text: as §3, §4, §5
# [9] = system: CYP2B1/2 mRNA; test: CYP2B1/2 mRNA expression in primary rat hepatocytes, quantitative RT-PCR; format: cell-based; conditions: 10 µM BDE-99, 24 h; P < 0.05; n = 3
# Protocol: as §1, with “Wells treated with media containing aliquots of DMSO were set up as controls.” left out
# as §2
# [10] = system: GSTP1 mRNA; test: GSTP1 mRNA expression in primary rat hepatocytes, quantitative RT-PCR; format: cell-based; conditions: 10 µM BDE-99, 24 h; n = 3
# Protocol: as §1, with “Wells treated with media containing aliquots of DMSO were set up as controls.” left out
# as §2
# [11] = target: T5, human CYP1A1 (Homo sapiens, UniProt P04798); test: Metabolic clearance (parent depletion) of BDE-99 by recombinant human CYP1A1; format: in vitro ADME; conditions: percentage parent BDE-99 metabolized during a 20-min incubation, 20 µM BDE-99, 37°C, mean ±SD, n = 3
# T5 construct: made in house; host or cells: Sf9 insect cells (Bac-to-Bac baculovirus), microsomes
# T5 sequence (P04798 1-512): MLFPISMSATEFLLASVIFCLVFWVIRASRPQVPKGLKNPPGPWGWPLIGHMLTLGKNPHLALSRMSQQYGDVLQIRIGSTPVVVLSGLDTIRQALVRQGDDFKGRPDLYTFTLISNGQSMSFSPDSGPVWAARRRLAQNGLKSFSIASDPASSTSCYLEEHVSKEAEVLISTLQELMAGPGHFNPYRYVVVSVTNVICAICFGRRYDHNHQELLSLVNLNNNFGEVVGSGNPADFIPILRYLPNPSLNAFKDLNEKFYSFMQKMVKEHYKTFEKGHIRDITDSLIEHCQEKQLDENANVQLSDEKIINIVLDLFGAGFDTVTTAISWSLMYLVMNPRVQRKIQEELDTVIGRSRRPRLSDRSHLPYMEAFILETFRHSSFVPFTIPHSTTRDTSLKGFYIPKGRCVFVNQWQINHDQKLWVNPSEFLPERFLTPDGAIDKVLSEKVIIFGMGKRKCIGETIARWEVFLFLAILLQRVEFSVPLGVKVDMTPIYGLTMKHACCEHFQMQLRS
# From the text: as §3, §4, §5
# [12] = hepatocytes exposed to 10 µM BDE-99
# T3 sequence (P05181 whole entry): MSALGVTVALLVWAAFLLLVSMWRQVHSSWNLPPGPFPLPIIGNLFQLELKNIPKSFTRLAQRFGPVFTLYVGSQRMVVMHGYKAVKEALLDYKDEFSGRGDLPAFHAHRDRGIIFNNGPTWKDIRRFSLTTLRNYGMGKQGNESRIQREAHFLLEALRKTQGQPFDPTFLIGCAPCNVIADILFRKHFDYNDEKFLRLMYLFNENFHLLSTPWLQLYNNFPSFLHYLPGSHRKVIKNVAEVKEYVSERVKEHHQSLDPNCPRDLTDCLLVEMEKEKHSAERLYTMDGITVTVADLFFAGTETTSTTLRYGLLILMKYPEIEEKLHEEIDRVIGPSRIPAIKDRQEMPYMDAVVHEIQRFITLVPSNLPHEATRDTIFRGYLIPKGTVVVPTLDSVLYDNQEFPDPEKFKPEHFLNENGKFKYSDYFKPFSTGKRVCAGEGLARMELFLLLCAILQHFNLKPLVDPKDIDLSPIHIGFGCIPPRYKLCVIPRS
# T2 sequence (P08684 whole entry): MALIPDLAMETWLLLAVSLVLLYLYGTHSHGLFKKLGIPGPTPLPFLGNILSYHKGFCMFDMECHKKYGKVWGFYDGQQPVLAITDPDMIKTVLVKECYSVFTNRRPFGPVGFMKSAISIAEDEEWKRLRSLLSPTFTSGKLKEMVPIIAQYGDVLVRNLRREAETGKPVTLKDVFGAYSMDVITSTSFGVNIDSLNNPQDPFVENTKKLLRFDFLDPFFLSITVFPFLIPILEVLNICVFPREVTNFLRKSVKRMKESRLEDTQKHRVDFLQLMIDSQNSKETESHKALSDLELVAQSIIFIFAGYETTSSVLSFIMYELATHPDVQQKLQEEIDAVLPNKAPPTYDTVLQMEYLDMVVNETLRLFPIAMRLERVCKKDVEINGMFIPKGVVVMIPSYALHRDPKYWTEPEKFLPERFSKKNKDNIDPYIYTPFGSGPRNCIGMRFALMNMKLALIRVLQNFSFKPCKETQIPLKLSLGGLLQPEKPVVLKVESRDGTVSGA
smiles,measurement,setting,value
Brc1ccc(Oc2ccc(Br)cc2Br)c(Br)c1 [BDE-47],metabolite of BDE-99 detected by GC/MS (qualitative),[1]; [12],found in all hepatocytes exposed to BDE-99
same,average concentration of metabolite BDE-47 formed from BDE-99,"[1]; hepatocytes exposed to 10 µM BDE-99, neutral extracts, GC/MS",215.9±35.8 pmol/well
"Brc1ccc(Oc2cc(Br)c(Br)cc2Br)c(Br)c1 [BDE-99, 2,2′,4,4′,5-pentabromodiphenyl ether]","GSTM1 mRNA expression, treated cells vs control cells",[2],no differences
same,Clearance rate of BDE-99 (%),[3],11.6% and 11.6±2.3%
same,average percentage increase of CYP1A2 mRNA expression vs control,[4],15%
same,BDE-99 mass unrecovered,"[1]; after 24-h incubation, initial 10.21±0.50 nmol/well",about 13.5%
same,metabolite of BDE-99 detected by GC/MS (qualitative),[1]; [12],no MeO metabolite was determined
same,Clearance rate of BDE-99 (%),[5],27.7% and 27.7±5.1%
same,Clearance rate of BDE-99 (%),[6],seemed not to be associated with the BDE-99 metabolism; also recorded: did not contribute to any metabolism of BDE-99; also recorded: N.S. ^b
same,average percentage increase of CYP3A23/3A1 mRNA expression vs control,[7],124%
same,Clearance rate of BDE-99 (%),[8],30.3% and 30.3±6.5%
same,average percentage increase of CYP2B1/2 mRNA expression vs control,[9],22%
same,"GSTP1 mRNA expression, treated cells vs control cells",[10],no differences
same,Clearance rate of BDE-99 (%),[11],14.5%
Oc1cc(Oc2ccc(Br)cc2Br)c(Br)cc1Br [5-OH-BDE-47],metabolite of BDE-99 detected by GC/MS (qualitative),[1]; [12],identified
"Oc1cc(Br)c(Br)cc1Br [2,4,5-tribromophenol]",metabolite of BDE-99 detected by GC/MS (qualitative),[1]; [12],identified
Oc1cc(Oc2cc(Br)c(Br)cc2Br)c(Br)cc1Br [5′-OH-BDE-99],metabolite of BDE-99 detected by GC/MS (qualitative),[1]; [12],identified
